Experiments:
[1] = molecular target: T1, bacteriophage T4 packaging motor (gp17 on emptied T4 heads) (Tequatrovirus T4, UniProt P17312); assay: optical tweezers single-DNA grip/slip assay with solution exchange; assay type: binding; settings: 0.5 mM ADP, 5 pN force; 50 mM Tris-HCl pH 7.5, 5 mM MgCl2, 80 mM NaCl
T1 construct: gene 17; N-terminally His-tagged recombinant gp17 from E. coli, assembled as pentamer on emptied heads (10am13am mutant phage) that carry the gp20 portal; with Portal protein
T1 sequence (P17312 whole entry): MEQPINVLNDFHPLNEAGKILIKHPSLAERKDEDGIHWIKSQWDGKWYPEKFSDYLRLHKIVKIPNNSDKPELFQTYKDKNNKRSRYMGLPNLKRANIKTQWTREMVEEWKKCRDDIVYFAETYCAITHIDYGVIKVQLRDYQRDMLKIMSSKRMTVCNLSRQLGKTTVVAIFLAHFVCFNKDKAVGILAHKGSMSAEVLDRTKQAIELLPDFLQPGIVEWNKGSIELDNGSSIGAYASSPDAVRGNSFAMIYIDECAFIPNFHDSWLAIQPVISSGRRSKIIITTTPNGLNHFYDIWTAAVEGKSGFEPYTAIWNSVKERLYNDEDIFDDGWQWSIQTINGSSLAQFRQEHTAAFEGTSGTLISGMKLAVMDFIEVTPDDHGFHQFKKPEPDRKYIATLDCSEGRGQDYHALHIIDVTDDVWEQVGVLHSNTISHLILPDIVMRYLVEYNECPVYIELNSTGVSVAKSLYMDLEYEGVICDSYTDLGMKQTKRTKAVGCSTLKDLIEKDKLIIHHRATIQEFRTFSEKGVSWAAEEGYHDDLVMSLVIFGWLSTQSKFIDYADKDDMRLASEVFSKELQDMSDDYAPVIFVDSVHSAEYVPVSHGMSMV

[2] = molecular target: T1, bacteriophage T4 packaging motor (gp17 on emptied T4 heads); assay: optical tweezers single-DNA packaging assay; assay type: biochemical; settings: ATP-driven DNA translocation; 50 mM Tris-HCl pH 7.5, 5 mM MgCl2, 80 mM NaCl

In the case of `Nc1ncnc2c1ncn2[C@@H]1O[C@H](COP(=O)(O)OP(=O)(O)O)[C@@H](O)[C@H]1O` [ADP], the “optical tweezers single-DNA grip/slip assay with solution exchange” value [1] is reported as “when ADP is used highly intermittent gripping is observed”.

With `Nc1ncnc2c1ncn2[C@@H]1O[C@H](COP(=O)(O)OP(=O)(O)OP(=O)(O)O)[C@@H](O)[C@H]1O` [ATP] the “optical tweezers single-DNA packaging assay” value [2] was “In each case the motor restarts when the complex is moved back into ATP”.
